In patent US20150104507A1 (UCB PHARMA GMBH, priority 2010, published 2015):
Values joined by “and” are separate entries in the source; they are usually repeats but may differ in a detail not shown here. Identical values can stand only once. Like-named read-outs stand apart in the source and are kept apart here.

Columns and labels:
[1] = Thorough QT trial: dizziness as adverse event vs tmax; type: in vivo; details: human, plasma, oral; day 6 of SP640; range 1-4 h; read-out: tmax, time for maximum LCM plasma concentration (median)
Description: In a thorough QT trial safety profile of lacosamide (LCM) was characterized. During day 2-6 of multiple dose administration of an IR formulation (Vimpat®) of 200 or 400 mg LCM bid 45 times ‘DIZZINESS’ was detected as adverse event (AE). Time of onset was 1.4+/−0.8 h after actual administration of LCM. This corresponds exactly to the typical time for maximum LCM plasma concentration tmax (e.g., 1 h (median, range 1-4 h) at day 6 of SP640).

[2] = PK-PD modeling of seizure frequency (Emax model, Example 54); type: in vivo, human; details: human, plasma, read-out: Corresponding AUCτ,ss
Text: (§1) Objectives of the PK-PD analysis were to evaluate and describe the correlation between the LCM plasma concentration over time (PK parameter) and the reduction of daily seizures over time (PD parameter) based on the pooled data from the previous clinical human trials.
(§2) The evaluation of PK-PD modeling was done based on the Emax model.
(§3) The slope of the linear regression is equal to the mean daily number of seizures.
(§4) In a first step, the validity of the developed equations for approximation of AUCτ,ss, the PK parameter of interest in the current PK-PD evaluation, was shown.
(§5) Based on the relative difference of the individual slopes during Titration and Maintenance Phase vs Baseline slope and the approximated AUCτ,ss,m, the PK-PD evaluation was performed using a linear model, the Emax model, and the Emax 100 model. […] Finally, the Emax model had the lowest weighted sum of squares and was therefore selected as the most appropriate PK-PD model to describe the data. […] The AUC50 is defined as the AUCτ,ss that is needed in individuals to achieve 50% of the maximum effect (decrease in seizure frequency).

[3] = tested on: subjects with partial-onset seizures; assay: as above; type: in vivo, human
Text: as §1, §2, §3, §4, §5

[4] = cited from earlier work
[5] = AUC of 67 μg/mL*h (mean dose 200 mg LCM bid)
[6] = Emax model, daily dose 50 mg bid (subject with Vd 50 L, ke 0.06 h^-1)
[7] = Emax model, daily dose 100 mg bid (subject with Vd 50 L, ke 0.06 h^-1)
[8] = Emax model, daily dose 110 mg bid (subject with Vd 50 L, ke 0.06 h^-1), AUC50
[9] = Emax model, daily dose 150 mg bid (subject with Vd 50 L, ke 0.06 h^-1)
[10] = Emax model, daily dose 200 mg bid (subject with Vd 50 L, ke 0.06 h^-1)
[11] = Emax model, daily dose 250 mg bid (subject with Vd 50 L, ke 0.06 h^-1)
[12] = Emax model, daily dose 300 mg bid (subject with Vd 50 L, ke 0.06 h^-1)

Compound: COC[C@@H](NC(C)=O)C(=O)NCc1ccccc1 [Lacosamide, (R)-2-Acetamido-N-benzyl-3-methoxypropionamide]
- Tmax [1]: 1 h
- AUC ([2]; 50 mg): 16700 ng·h/mL
- AUC ([2]; 100 mg): 33300 ng·h/mL
- AUC ([2]; 110 mg): 35900 ng·h/mL
- AUC ([2]; 150 mg): 50000 ng·h/mL
- AUC ([2]; 200 mg): 66700 ng·h/mL
- AUC ([2]; 250 mg): 83300 ng·h/mL
- AUC ([2]; 300 mg): 100000 ng·h/mL
- decrease as percent of the maximum effect [3, 5]: 65%
- decrease of the daily number of seizures [3, 5]: 46%
- AUC50 (AUC needed to achieve half of the maximum effect), arithmetic mean (SD) ([3]; Emax model, N = 615 subjects): 35.9 (185.6) μg/mL*h
- AUC50, 1st quantile ([3]; Emax model, N = 615 subjects): 0 µg·h/mL
- AUC50, 3rd quantile ([3]; Emax model, N = 615 subjects): 27.27 µg·h/mL
- AUC50, median ([3]; Emax model, N = 615 subjects): 1.05 µg·h/mL
- AUC50, range ([3]; Emax model, N = 615 subjects): 0 to 3998 µg·h/mL
- Emax, 3rd quantile ([3]; Emax model, N = 615 subjects): 100%
- Emax, arithmetic mean (SD) ([3]; Emax model, N = 615 subjects): 71.0 (30.0) %
- Emax, median ([3]; Emax model, N = 615 subjects): 77.0%
- Emax, range ([3]; Emax model, N = 615 subjects): 0.06-100%
- Emax, maximum effect (reduction of the seizure frequency vs baseline) ([3]; Emax model, pooled clinical trials, adjunctive LCM): 71%
- AUC50 (AUC at steady-state to achieve half of the maximum decrease in partial seizure frequency), mean ([3]; Emax model, pooled clinical trials, listed as LCM): 35 µg·h/mL and 35.9 µg·h/mL
- Decrease of daily number of seizures, E(AUC) % of Emax [3, 6]: 31.7 % of Emax
- Decrease of daily number of seizures, E(AUC) % of base line [3, 6]: 22.5 % of base line
- Decrease of daily number of seizures, E(AUC) % of Emax [3, 7]: 48.1 % of Emax
- Decrease of daily number of seizures, E(AUC) % of base line [3, 7]: 34.2 % of base line
- Decrease of daily number of seizures, E(AUC) % of Emax [3, 8]: 50 % of Emax
- Decrease of daily number of seizures, E(AUC) % of base line [3, 8]: 35.1 % of base line
- Decrease of daily number of seizures, E(AUC) % of Emax [3, 9]: 58.2 % of Emax
- Decrease of daily number of seizures, E(AUC) % of base line [3, 9]: 41.3 % of base line
- Decrease of daily number of seizures, E(AUC) % of Emax [3, 10]: 65.0 % of Emax
- Decrease of daily number of seizures, E(AUC) % of base line [3, 10]: 46.1 % of base line
- Decrease of daily number of seizures, E(AUC) % of Emax [3, 11]: 69.9 % of Emax
- Decrease of daily number of seizures, E(AUC) % of base line [3, 11]: 49.6 % of base line
- Decrease of daily number of seizures, E(AUC) % of Emax [3, 12]: 73.6 % of Emax
- Decrease of daily number of seizures, E(AUC) % of base line [3, 12]: 52.2 % of base line
- decrease as percent of the maximum effect ([3]; in vivo): 74%
- decrease of the daily number of (partial) seizures ([3]; in vivo): 52%
- maximum dosage-normalized steady state plasma level (Cmax, ss, norm) ([4]; IR tablets twice daily, average distribution volume 50 litres): 40 to 43 ng/mL/mg
- Tmax ([4]; IR tablets, after administration): 1.4 to 1.5 h
- elimination half-life ([4]; in vivo): 13 to 14 h
- bioavailability ([4]; oral): ~100%
